From a melting point compilation (Tetko et al.; mined from patent text by program, amines drawn as free bases though some values may be those of a salt)
Residues, ends and D or L forms follow the SMILES beside them. *: point of attachment. Bz = O=C(c1ccccc1)*

Row | melting point | Structure (SMILES)
1 | > 270 °C | NC(=O)c1ccc(NC(=O)c2ccccc2SSc2ccccc2C(=O)Nc2ccc(C(N)=O)cc2)cc1
2 | 120 to 128 °C | Cc1onc(NS(=O)(=O)c2ccccc2-c2ccc(-c3ncco3)cc2CN(C)C(=O)CC(C)(C)C)c1C
3 | 56 to 59 °C | Oc1cc(Cl)cc2c1CCC2
4 | 196 to 197 °C | O=C1NCCc2c(-c3ccc(F)cc3F)[nH]c3cccc1c23
5 | 116 °C | O=C(CSCc1ccc(Cl)cc1Cl)NO
6 | 156 to 158 °C | COc1cccc2cc(CN(C)CCNC(=O)C34CC5CC(CC(C5)C3)C4)oc12
7 | 87 to 88 °C | COc1ccc(OC)c2c1C(=O)C=C(SCCCCCCO)C2=O
8 | 129 to 130 °C | Cc1oc(C=Cc2ccc(Cl)cc2)nc1CO
9 | 106 to 109 °C | O=C(O)/C=C/c1ccc(OCC2CCCO2)cc1Oc1ncc(C(F)(F)F)cc1Cl (configuration not stated)
10 | 106 to 115 °C | O=C(NCC(O)CO)c1cc2c(Oc3ccc(Cl)cc3)cncc2s1 (configuration not stated)
11 | 89.5 to 90 °C | COc1ccc(-n2nnnc2C(F)(F)F)c(OC)c1CBr
12 | 99 to 100 °C | CC1(C)NCCc2ccccc2C1c1ccccc1 (configuration not stated)
13 | 109 °C | CCCCOc1cc(/C=C(\OCC)C(=O)O)ccc1OCCc1ccc(OCC)c(Cl)c1
14 | 189 to 193 °C | COc1cc2nc(N3CCN(c4nc5cccccc-5n4)CC3)nc(N)c2cc1OC
15 | 199 °C | CC(C)(C)OC(=O)Cn1ccc2cc(NC(=O)CC34CC5CC(CC(C5)C3)C4)ccc21
16 | 186 to 188 °C | Cc1c(CC(=O)O)c2cc(OCc3nc4ccccc4s3)ccc2n1Cc1ccccc1
17 | 116 to 117 °C | O=C1NCCc2ccc(OCCCN3CCCN(c4cccc(Cl)c4Cl)CC3)cc21
18 | 163 °C | CC(C)(Oc1ccc(CC(=O)Nc2ccc(Cl)cc2)cc1)C(=O)O
19 | 157 to 158 °C | O=C(O)CNC(=O)c1c(Cl)cc(N2C(=O)N3CCCC3(Cc3ccc(Br)cc3)C2=O)cc1Cl (configuration not stated)
20 | 193 to 194 °C | Cc1ccc2cc3nc4cccc(Cl)c4c-3[nH]c2c1
21 | 53 °C | Brc1ccc(SCCOCCSc2ccc(Br)cc2)cc1
22 | 192 to 195 °C | CC1CCN(c2cc3nc(C(C)(C)C)sc3cc2NC(=S)N2CCN(C)CC2)CC1

Row | melting point | Structure (SMILES)
23 | 134 to 135 °C | CCON(c1ccc([N+](=O)[O-])cc1Cl)S(=O)(=O)c1ccc(C)cc1
24 | 127 to 128 °C | CCOC(=O)c1cnn(-c2ccc(F)cc2)c1O
25 | 108 to 112 °C | O=C1C(=CN2CCCC2)c2ccccc2N1c1cccc(Cl)c1
26 | 156 to 157 °C | CCN(Cc1nc2cc(OC)c(OC)cc2c(-c2ccc(OC)c(OC)c2)c1C(C)=O)C(C)(C)C
27 | 151 to 153 °C | Cc1ccc(N2CCN(Cc3n[nH]c4ccccc34)CC2)nc1
28 | 57 to 62 °C | CCOC(=S)NC1(N=NC(C)(C)C)CCCCC1
29 | 190 to 192 °C | CC1=C(N2CCN(C(=O)Nc3ccc(Cl)cc3)CC2)C(=O)c2ccccc2C1=O
30 | 111 to 112 °C | CSC(=O)c1c(O)ccc2ccccc12
31 | 132 to 133 °C | COc1ccc(S(=O)(=O)Nc2nc(-c3cccc4ccccc34)cs2)cc1OC
32 | 153 to 155 °C | COc1ccc(CNc2nnc(N3CCC(CCO)CC3)c3ccc(Cl)cc23)cc1Cl
33 | 167 to 169 °C | CON1CCN2C(=O)C(c3cc(C)ccc3C)C(=O)N2CC1
34 | 204 °C | FC(F)(F)c1cc(Cl)c2nc(N3CCN(c4ncccc4C(F)(F)F)CC3)[nH]c2c1
35 | 109 to 116 °C | CC(C)C[C@H](NC(=O)OCC1CCCCC1)C(=O)N[C@@H](CC(C)C)C(=O)N[C@@H](C(C)C)[C@@H](O)c1c(-c2ccccc2)c1=O
36 | 302 to 303 °C | O=C1NC(=O)C(c2ccccc2)(c2c[nH]c3ccccc23)N1 (configuration not stated)
37 | 207 °C | O=[N+]([O-])C1COc2cc3c(cc2C1c1ccccc1C1OCCCO1)OCO3 (configuration not stated)
38 | 31 to 33 °C | CCCCCCCCCCCCCCOc1cccc(CC(=O)OC)c1
39 | 92 °C | CC(C)OC(=O)C1CCCn2c(C(=O)c3ccc(F)cc3)ccc21 (configuration not stated)
40 | 172 to 174 °C | COc1cc(OC)c(F)c(N=Cc2cnc(SC)nc2NC2CC2)c1F
41 | 207 °C | CCOC(=O)c1c(S(C)=O)n(C2CC2)c2cc(F)c(F)cc2c1=O (configuration not stated)
42 | 118 to 120 °C | O=Cc1c2cccc(Cl)c2c(Cl)c2c(Cl)cccc12
43 | > 320 °C | COc1ccc(C=Cc2nc3c(c(=O)n(C)c(=O)n3C)n2C)cc1
44 | 217 to 219 °C | COc1ccc(S(=O)(=O)N2C(=O)C(O[Si](C)(C)C)(c3ccccc3Cl)c3cc(Cl)c(OC)cc32)c(OC)c1 (configuration not stated)

More lines, now with the values behind:

Row | Structure (SMILES) | melting point
45 | O=C1CCC(c2ccccc2)(c2ccccc2)C2CN(C(Cc3ccccc3)=NCc3cccnc3)CC12 (configuration not stated) | 102 °C
46 | CCSc1nc(-c2ccccc2)cc2nnc(C)n12 | 210 to 212 °C
47 | CC(=O)NNC1=Nc2sccc2C(c2ccccc2)=NC1 | 194 to 196 °C
48 | CC(c1cccc(O)c1)N(C)C (configuration not stated) | 85 to 86 °C
49 | c1ccc2c(OCCN3CCCCC3)c3ccccc3c(OCCN3CCCCC3)c2c1 | 103 to 106 °C
50 | CC(=O)SCCC1C(=O)N2CCCC(C(=O)OC(C)(C)C)N2C1=O (configuration not stated) | 86 to 88 °C
51 | CCS(=O)(=O)c1cc2c(cc1OC)CCn1c3c(c(Br)c1-2)CCCCN(C(C)(C)C)C3=O | 227 °C
52 | CCCCCCCCCCC1(CCCCCCCCCC)c2cc(Br)ccc2-c2ccc(I)cc21 | 43 to 45 °C
53 | CC1CN(c2ccc(N)cc2)C(C)CN1CC(O)(Cn1cncn1)c1ccc(Cl)cc1Cl (configuration not stated) | 74 to 75 °C
54 | Nc1cc(-n2cccn2)nc(-c2ccc(Br)o2)n1 | 221 to 222 °C
55 | CC1(C)OC(=S)Nc2ccc(Br)cc21 | 221 to 222 °C
56 | CCOC(=O)C(=CNc1ncnc2cc(C)c(C)cc12)C(=O)OCC | 146 to 148 °C
57 | Nc1ncnc2c1c(-c1ccc(Oc3ccccc3)cc1)c(Br)n2C1CCCC1 | 162 °C
58 | c1ccc(Cc2ccccc2C2CCN(CCCOc3ccccc3)CC2)cc1 | 139 to 140 °C
59 | O=[N+]([O-])c1ccc(C2OCCO2)nc1 | 104 to 105 °C
60 | COC(=O)C(=NO)c1cccc(Oc2ccccc2)c1 | 122 to 123 °C
61 | CCCCn1c(=O)c2nc(-c3ccc(/C=C/C(=O)O)cc3)[nH]c2n(C)c1=O | > 300 °C
62 | CC(O)(C(=O)O)c1ccc(-c2ccccc2)c(F)c1 (configuration not stated) | 161 to 163 °C
63 | Cc1ccc(N(c2ccccc2)c2ccc(-c3ccc(N(c4ccccc4)c4ccc(C)cc4)cc3)cc2)cc1 | 163 to 164 °C
64 | O=[N+]([O-])c1c(F)cc(Br)c(OCCCl)c1Br | 56 °C
65 | CC(C)c1cccc(C(C)C)c1NC(=O)C1CC(c2ccc(F)cc2)OC1=O (configuration not stated) | 203 to 205 °C
66 | OC1CSC(Oc2cc(-c3ccc(F)nc3)cnc2F)C(O)C1O (configuration not stated) | 158 to 159 °C
67 | O=[N+]([O-])C=CC1=CCN(c2ccccc2)N1 | 150 °C
68 | CNC(=S)C1(c2cccc(C)n2)CCCCS1=O (configuration not stated) | 234 °C
69 | O=C(COc1ccc(Cl)cc1Cc1cc(Cl)ccc1O)OCc1ccccc1 | 135 to 137 °C
70 | COC(=O)c1ccc(OCCCNC(=O)C[C@H]2O[C@H](c3cccc(OC)c3OC)c3cc(Cl)ccc3N(CC(C)(C)CO)C2=O)cc1 | 147 to 149 °C
71 | Cc1nc2c(s1)CN=C(c1ccccc1Cl)c1cc(Cl)ccc1-2 | 162 to 164 °C

Row | Structure (SMILES) | melting point
72 | CCCCOc1ccc(-c2ccc(C)c(C#N)c2C#N)cc1 | 152 °C
73 | CCNc1nc(N)nc(N)n1 | 171 °C
74 | COc1c(C)c(OC(=O)c2c(C)c(C)c(OCCCOc3ccc(C(=O)O)cc3)c(C)c2OC)c(C)c(C)c1C(N)=O | 267 to 268 °C
75 | COc1cc(OC)c2c(=O)[nH]c(-c3cc(C)c(OCC(C)(C)O)c(C)c3)cc2c1 | 252 to 254 °C
76 | CCCCNC(=O)[C@@H](C[C@H](O)[C@H](CC1CCCCC1)NC(=O)[C@H](Cc1cscn1)NC(=O)[C@@H](CC(=O)N1CCOCC1)Cc1ccccc1)C(C)C | 161 to 163 °C
77 | COc1cc2c(cc1Br)Cc1cc(Br)ccc1-2 | 172 °C
78 | Cc1nc2c(OCc3ccccc3)cc(C(=O)N(C)C)cn2c1C | 160 °C
79 | CC1(C)CCC(C)(C)c2cc3c(cc21)OCC3(C)c1cc(CO)cs1 (configuration not stated) | 127 °C
80 | CC(C)(C)c1ncc([C@H]2[C@H](C(=O)O)C2(C)C)cn1 (relative stereo) | 168 to 169 °C
81 | S=C(CCC(c1ccccc1)(c1ccccc1)c1ccccc1)Oc1c(Cl)c(Cl)c(Cl)c(Cl)c1Cl | 154 to 156 °C
82 | COC1(C)CN(c2ccc([N+](=O)[O-])cc2F)C1 | 110 to 111 °C
83 | CCCn1c(=O)c2c(NC)n(C(C)=O)nc2n(Cc2cccc(Cl)c2)c1=O | 169 to 171 °C
84 | CCOP(=O)(OCC)c1cnn(-c2ccc(Cl)c(Cl)c2Cl)c1N | 114 °C
85 | O=C(CCCc1c[nH]c2ccccc12)NCc1ccccc1 | 132 to 133 °C
86 | CSc1ccc(-c2ccc(C(=O)Nc3ccc4cc(CN5CCCC5)cnc4c3C)c(F)c2)cc1 | 189 to 190 °C
87 | CN1C(=O)C(NC(=O)Nc2ccc([N+](=O)[O-])cc2)N=C(c2ccccc2)c2ccccc21 (configuration not stated) | 292 to 293 °C
88 | COc1ccc2c(c1)C13CCN(C#N)C(C2)C1CCC(=O)C3 (configuration not stated) | 211 to 214 °C
89 | CCCn1c(=O)[nH]c2ccc(C(=O)c3ncc4ccc(C(=O)O)cn34)cc2c1=O | 384 °C
90 | COC(=O)C(C)(C)Cc1c(SC(C)(C)C)c2ccc(OC)cc2n1C | 97 to 98 °C
91 | CCCCCCC(=O)CCCn1c(CCC)nc2c(N)nc3ccccc3c21 | 111 to 113 °C
92 | COc1cc(C2CCN(C)CC2)ccc1-c1nc2c(N[C@H]3[C@@H](C(N)=O)[C@@H]4C=C[C@H]3C4)c(Cl)cnc2[nH]1 | 232 to 235 °C
93 | COC(=O)c1nc2cc(OC)c(OC)cc2n(C)c1=O | 222 °C
94 | CCNC(=O)[C@@H]1CCCN1C(=O)[C@H](C)NC(=O)c1ccccc1 (Bz-Ala-Pro-NHEt) | 200 to 202 °C
95 | CC1CCNC(=C2C(=O)CC(C)(C)CC2=O)C1 (configuration not stated) | 174 °C
96 | CCCCCCCCC(SCCCCCC)C(=O)NC1(OC)C=C(C)C=CN1 (configuration not stated) | 83 to 85 °C
97 | O=[N+]([O-])C=C1SCCCN1S(=O)(=O)Cc1ccccc1 | 140 to 141 °C
